The record followed here is BindingDB's records for doi:10.1016/j.bmcl.2006.10.074 (Abbott Laboratories, 2007).

For orientation: IC50 means the concentration that gives 50% inhibition. A higher IC50 goes with lower potency.

Test [1] deals with 11-beta-hydroxysteroid dehydrogenase 1 (Mus musculus, UniProt P50172). Kind of test: Human and Mouse 11beta-HSD1 SPA Assay. Here is the method:
(§1) Enzyme assays were performed using purified recombinant human or mouse11beta-HSD1. The fractional conversion of cortisone to cortisol was used to determine enzyme activities. The radioactive cortisol generated in the assay was captured by a monoclonal anti-cortisol antibody and SPA beads coated with anti-mouse antibodies.

The target in test [2] is 11-beta-hydroxysteroid dehydrogenase 1 (Homo sapiens, UniProt P28845). Kind of test: Human and Mouse 11beta-HSD1 SPA Assay. Conditions: pH 7.2; 22 °C. The method, then:
as §1

11-beta-hydroxysteroid dehydrogenase 1 (Homo sapiens, UniProt P28845), sequence (P28845 whole entry): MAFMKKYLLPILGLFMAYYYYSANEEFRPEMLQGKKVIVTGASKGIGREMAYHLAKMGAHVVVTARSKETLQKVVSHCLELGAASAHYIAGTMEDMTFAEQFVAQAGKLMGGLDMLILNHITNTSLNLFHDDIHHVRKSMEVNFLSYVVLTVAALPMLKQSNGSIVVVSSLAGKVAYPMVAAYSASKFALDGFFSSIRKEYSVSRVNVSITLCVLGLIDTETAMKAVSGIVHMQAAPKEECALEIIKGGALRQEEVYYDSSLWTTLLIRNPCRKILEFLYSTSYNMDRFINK
11-beta-hydroxysteroid dehydrogenase 1 (Mus musculus, UniProt P50172), sequence (P50172 whole entry): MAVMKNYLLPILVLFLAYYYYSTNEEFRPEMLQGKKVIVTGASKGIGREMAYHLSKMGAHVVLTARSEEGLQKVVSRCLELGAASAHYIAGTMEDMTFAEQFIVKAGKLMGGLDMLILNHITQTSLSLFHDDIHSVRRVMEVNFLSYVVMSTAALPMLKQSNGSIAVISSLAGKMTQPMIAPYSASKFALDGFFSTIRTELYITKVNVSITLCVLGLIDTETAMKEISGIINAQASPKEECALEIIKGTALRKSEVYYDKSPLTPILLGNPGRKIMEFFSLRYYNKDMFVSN

In test [1], `CC(C)(Oc1ccc(F)cc1Cl)C(=O)N[C@H]1C2C[C@@H]3C[C@@H]1C[C@@](c1nnn[nH]1)(C2)C3` [2-(2-chloro-4-fluorophenoxy)-2-methyl-N-[(1R,2S,5R,7S)-5-(1H-1,2,3,4-tetrazol-5-yl)adamantan-2-yl]propanamide] showed an IC50 of 10 nM. Still for that read-out and setting: to `CNC(=O)NC(=O)[C@@]12CC3C[C@H](C[C@H](C1)[C@H]3NC(=O)C(C)(C)Oc1ccc(Cl)cc1)C2` [2-(4-chlorophenoxy)-2-methyl-N-[(1R,2S,5R,7S)-5-{[(methylcarbamoyl)amino]carbonyl}adamantan-2-yl]propanamide] belongs 8 nM; to `CC(C)(Oc1ccc(Cl)cc1)C(=O)N[C@H]1C2C[C@@H]3C[C@@H]1C[C@@](CO)(C2)C3` [2-(4-chlorophenoxy)-N-[(1R,2S,5R,7S)-5-(hydroxymethyl)adamantan-2-yl]-2-methylpropanamide], 6 nM. As to `CC(C)(Oc1ccc(Cl)cc1)C(=O)N[C@H]1C2C[C@@H]3C[C@@H]1C[C@@](COCC(=O)O)(C2)C3` [2-{[(1R,3R,4S,7S)-4-[2-(4-chlorophenoxy)-2-methylpropanamido]adamantan-1-yl]methoxy}acetic acid], the values for the IC50 in test [1] and in test [2] were 210 nM and 110 nM, respectively. In test [1], `CC(C)(Oc1ccc(Cl)cc1)C(=O)N[C@H]1C2C[C@@H]3C[C@@H]1C[C@@](C(=O)NCc1ccc(C(=O)O)cc1)(C2)C3` [4-({[(1R,3R,4S,7S)-4-[2-(4-chlorophenoxy)-2-methylpropanamido]adamantan-1-yl]formamido}methyl)benzoic acid] yielded an IC50 of 12 nM.

Compound `CC(C)(Oc1ccccc1)C(=O)N[C@H]1C2C[C@@H]3C[C@@H]1C[C@@](C(N)=O)(C2)C3` [(1R,3R,4S,7S)-4-(2-methyl-2-phenoxypropanamido)adamantane-1-carboxamide] gave an IC50 in test [1] of 4 nM. Still for that read-out and setting: the value for `CC(C)(Oc1ccccc1)C(=O)N[C@H]1C2C[C@@H]3C[C@@H]1C[C@@](C(=O)O)(C2)C3` [(1R,3R,4S,7S)-4-(2-methyl-2-phenoxypropanamido)adamantane-1-carboxylic acid] was 119 nM.

In the case of `CC(C)(Oc1ccccc1Cl)C(=O)N[C@H]1C2C[C@@H]3C[C@@H]1C[C@@](C(=O)NS(C)(=O)=O)(C2)C3` [(1R,3R,4S,7S)-4-[2-(2-chlorophenoxy)-2-methylpropanamido]-N-methanesulfonyladamantane-1-carboxamide], the IC50 worked out at 28 nM in test [1] and 96 nM in test [2]. In the case of `CC(C)(Oc1ccccc1Cl)C(=O)N[C@H]1C2C[C@@H]3C[C@@H]1C[C@@](C(=O)O)(C2)C3` [(1R,3R,4S,7S)-4-[2-(2-chlorophenoxy)-2-methylpropanamido]adamantane-1-carboxylic acid], the IC50 in test [1] and in test [2] was 8 nM throughout.

On to `CC(C)(Oc1cccc(Cl)c1)C(=O)N[C@H]1C2C[C@@H]3C[C@@H]1C[C@@](C(=O)O)(C2)C3` [(1R,3R,4S,7S)-4-[2-(3-chlorophenoxy)-2-methylpropanamido]adamantane-1-carboxylic acid], for which the IC50 in test [1] came to 51 nM; in test [2] it was 15 nM.

`CC(C)(Oc1ccc(Cl)cc1)C(=O)N[C@H]1C2C[C@@H]3C[C@@H]1C[C@@](C(=O)NCc1cncs1)(C2)C3` [(1R,3R,4S,7S)-4-[2-(4-chlorophenoxy)-2-methylpropanamido]-N-(1,3-thiazol-5-ylmethyl)adamantane-1-carboxamide] registered an IC50 in test [1] of 11 nM. As for `CC(C)(Oc1ccc(Cl)cc1)C(=O)N[C@H]1C2C[C@@H]3C[C@@H]1C[C@@](C(=O)NCc1ccncc1)(C2)C3` [(1R,3R,4S,7S)-4-[2-(4-chlorophenoxy)-2-methylpropanamido]-N-(pyridin-4-ylmethyl)adamantane-1-carboxamide], the IC50 in test [1] was 14 nM; in test [2] it was 25 nM. For `CC(C)(Oc1ccc(Cl)cc1)C(=O)N[C@H]1C2C[C@@H]3C[C@@H]1C[C@@](C(=O)NCc1ccc(S(N)(=O)=O)cc1)(C2)C3` [(1R,3R,4S,7S)-4-[2-(4-chlorophenoxy)-2-methylpropanamido]-N-[(4-sulfamoylphenyl)methyl]adamantane-1-carboxamide] the same measures were 24 nM and 51 nM. On to `CC(C)(Oc1ccc(Cl)cc1)C(=O)N[C@H]1C2C[C@@H]3C[C@@H]1C[C@@](C(=O)NCc1ccc(-c4nnn[nH]4)cc1)(C2)C3` [(1R,3R,4S,7S)-4-[2-(4-chlorophenoxy)-2-methylpropanamido]-N-{[4-(1H-1,2,3,4-tetrazol-5-yl)phenyl]methyl}adamantane-1-carboxamide], for which the IC50 in test [1] worked out at 18 nM.

Turning to `CC(C)(Oc1ccc(Cl)cc1)C(=O)N[C@H]1C2C[C@@H]3C[C@@H]1C[C@@](C(N)=O)(C2)C3` [(1R,3R,4S,7S)-4-[2-(4-chlorophenoxy)-2-methylpropanamido]adamantane-1-carboxamide], 3 nM corresponded to half-maximal inhibition in test [1] (IC50). On the same count and under the same terms, to `CC(C)(Oc1ccc(Cl)cc1)C(=O)N[C@H]1C2C[C@@H]3C[C@@H]1C[C@@](C(=O)O)(C2)C3` [(1R,3R,4S,7S)-4-[2-(4-chlorophenoxy)-2-methylpropanamido]adamantane-1-carboxylic acid] belongs 70 nM; to `COc1ccc(OC(C)(C)C(=O)N[C@H]2C3C[C@@H]4C[C@@H]2C[C@@](C(N)=O)(C3)C4)cc1` [(1R,3R,4S,7S)-4-[2-(4-methoxyphenoxy)-2-methylpropanamido]adamantane-1-carboxamide], 4 nM. On to `CC(C)(Oc1ccccc1Cl)C(=O)N[C@H]1C2C[C@@H]3C[C@@H]1C[C@@](C(=O)NS(=O)(=O)c1ccccc1)(C2)C3` [(1R,3R,4S,7S)-N-(benzenesulfonyl)-4-[2-(2-chlorophenoxy)-2-methylpropanamido]adamantane-1-carboxamide], for which the IC50 was 1000 nM in test [1] and 500 nM in test [2]. In test [1], `CC(C)(Oc1ccc(Cl)cc1)C(=O)N[C@H]1C2C[C@@H]3C[C@@H]1C[C@@](C(=O)NCC(N)=O)(C2)C3` [N-[(1R,2S,5R,7S)-5-[(carbamoylmethyl)carbamoyl]adamantan-2-yl]-2-(4-chlorophenoxy)-2-methylpropanamide] yielded an IC50 of 4 nM.
